Measurements: the supplement of paper PMC10307832

Experiments:
Assay in all cases: relative viability (nuclei count vs DMSO), 5 days (fraction); higher = more cells survive
Decitabine + Bortezomib = compound: Nc1ncn([C@H]2C[C@H](O)[C@@H](CO)O2)c(=O)n1 [Decitabine] + CC(C)C[C@H](NC(=O)[C@H](Cc1ccccc1)NC(=O)c1cnccn1)B(O)O [Bortezomib] (partner 0.002 µM)
Procedure, shortened: (§1)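 After 5 days of treatment, lung cancer cells in 1536-well plates were fixed and stained in a single step (final 0.05% Triton X-100, 1% formaldehyde, 1 ug/ml Hoechst) and their nuclei counted on 4× images. Treatment had been applied by pin tool the day after seeding as one drug alone or as a fixed anchor-drug dose with five library-drug doses (not always all listed) in √10 steps. Relative viability is the nuclei count of treated wells divided by that of vehicle wells, and values are medians of duplicate plates.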

[1] = compound: O=C(C[C@H]1NCCC[C@@H]1O)Cn1cnc2cc(Br)c(Cl)cc2c1=O (racemic) [Halofuginone] + Nc1ncn([C@H]2C[C@H](O)[C@@H](CO)O2)c(=O)n1 [Decitabine] (partner 2 µM)
Procedure, shortened: as §1

Cediranib + Phenformin = compound: COc1cc2c(Oc3ccc4[nH]c(C)cc4c3F)ncnc2cc1OCCCN1CCCC1 [Cediranib] + N=C(N)NC(=N)NCCc1ccccc1 [Phenformin] (partner 250 µM)
Procedure, shortened: as §1

Decitabine + Luminespib = compound: Nc1ncn([C@H]2C[C@H](O)[C@@H](CO)O2)c(=O)n1 [Decitabine] + CCNC(=O)c1noc(-c2cc(C(C)C)c(O)cc2O)c1-c1ccc(CN2CCOCC2)cc1 [Luminespib] (partner 0.01 µM)
Procedure, shortened: as §1

Cell Line | relative viability (Decitabine + Bortezomib; first compound 0.04 µM) | relative viability (Decitabine + Bortezomib; first compound 0.1265 µM) | relative viability (Decitabine + Bortezomib; first compound 0.4 µM) | relative viability (Decitabine + Bortezomib; first compound 1.265 µM) | relative viability (Decitabine + Bortezomib; first compound 4 µM) | relative viability ([1]; first compound 0.001 µM) | relative viability ([1]; first compound 0.003162 µM) | relative viability ([1]; first compound 0.01 µM) | relative viability ([1]; first compound 0.03162 µM) | relative viability ([1]; first compound 0.1 µM) | relative viability (Cediranib + Phenformin; first compound 0.04 µM) | relative viability (Cediranib + Phenformin; first compound 0.1265 µM) | relative viability (Cediranib + Phenformin; first compound 0.4 µM) | relative viability (Cediranib + Phenformin; first compound 1.265 µM) | relative viability (Cediranib + Phenformin; first compound 4 µM) | relative viability (Decitabine + Luminespib; first compound 0.04 µM) | relative viability (Decitabine + Luminespib; first compound 0.1265 µM) | relative viability (Decitabine + Luminespib; first compound 0.4 µM) | relative viability (Decitabine + Luminespib; first compound 1.265 µM) | relative viability (Decitabine + Luminespib; first compound 4 µM)
HCC-366 | 0.971 | 0.788 | 0.421 | 0.197 | 0.121 | 0.385 | 0.418 | 0.339 | 0.373 | 0.336 | 0.536 | 0.594 | 0.614 | 0.738 | 0.663 |  |  |  |  | 
HCC-827 | 0.748 | 0.567 | 0.399 | 0.36 | 0.372 | 0.332 | 0.282 | 0.207 | 0.295 | 0.308 | 0.412 |  | 0.389 | 0.385 | 0.356 | 0.239 | 0.31 | 0.246 | 0.301 | 0.316
HOP-62 | 0.418 | 0.23 | 0.23 | 0.0953 | 0.0952 | 0.233 | 0.224 | 0.194 | 0.206 | 0.199 | 0.703 | 0.607 | 0.647 | 0.632 | 0.741 | 0.488 | 0.342 | 0.21 | 0.187 | 0.209
IA-LM | 0.44 | 0.54 | 0.257 | 0.172 | 0.185 |  |  |  |  |  |  |  |  |  |  |  |  |  |  | 
LC-2-ad | 0.799 | 0.779 | 0.459 | 0.304 | 0.329 | 0.7 | 0.857 | 0.806 | 0.892 | 0.687 | 0.595 | 0.497 | 0.612 | 0.569 | 0.554 | 0.839 | 0.958 | 0.782 | 0.492 | 0.558
LCLC-97TM1 | 0.202 | 0.268 | 0.123 | 0.124 | 0.11 | 0.263 | 0.222 | 0.203 | 0.19 | 0.227 | 0.501 | 0.288 | 0.421 | 0.49 | 0.449 | 0.403 | 0.48 | 0.322 | 0.143 | 0.159
LCLC-103H | 0.985 | 1.04 | 0.966 | 0.9 | 0.749 | 0.773 | 0.78 | 0.735 | 0.711 | 0.728 | 0.319 | 0.39 | 0.298 | 0.344 | 0.352 | 0.863 | 0.829 | 0.685 | 0.594 | 0.472
LK-2 |  |  |  |  |  | 0.309 | 0.261 | 0.337 | 0.328 | 0.286 | 0.38 | 0.175 | 0.35 | 0.418 | 0.29 | 0.196 | 0.193 | 0.156 | 0.214 | 0.17
NCI-H358 |  |  |  |  |  | 0.227 | 0.239 | 0.2 | 0.135 | 0.119 | 0.336 | 0.41 | 0.299 | 0.222 | 0.358 | 0.073 | 0.206 | 0.247 | 0.199 | 0.1
NCI-H522 |  |  |  |  |  | 0.735 | 0.673 | 0.871 | 0.753 | 0.717 | 0.623 | 0.608 | 0.575 | 0.64 | 0.687 | 1.07 | 0.919 | 0.923 | 0.652 | 0.684
NCI-H1299 | 1.01 | 0.988 | 0.965 | 0.867 | 0.865 |  |  |  |  |  |  |  |  |  |  |  |  |  |  | 
NCI-H1395 |  |  |  |  |  | 0.662 | 0.69 | 0.751 | 0.631 | 0.519 | 0.49 | 0.427 | 0.467 | 0.444 | 0.42 | 0.626 | 0.661 | 0.568 | 0.432 | 0.438
NCI-H1563 | 0.801 | 1.02 | 1.16 | 0.987 | 0.908 |  |  |  |  |  | 0.63 | 0.851 | 0.676 | 0.651 | 0.665 | 0.564 | 0.508 | 0.428 | 0.545 | 0.495
NCI-H1623 |  |  |  |  |  |  |  |  |  |  | 0.587 |  | 0.553 | 0.595 | 0.567 | 0.51 | 0.475 | 0.504 | 0.427 | 0.434
NCI-H1648 |  |  |  |  |  | 0.518 | 0.525 | 0.512 | 0.559 | 0.506 |  |  |  |  |  |  |  |  |  | 
NCI-H1703 | 0.243 | 0.258 | 0.2 | 0.182 | 0.176 |  |  |  |  |  |  |  |  |  |  |  |  |  |  | 
NCI-H1793 |  |  |  |  |  | 0.511 | 0.6 | 0.505 | 0.5 | 0.21 | 0.231 | 0.32 | 0.39 |  | 0.393 | 0.154 | 0.212 | 0.19 | 0.176 | 0.213
NCI-H1944 |  |  |  |  |  | 0.4 | 0.435 | 0.396 | 0.407 | 0.451 | 0.211 | 0.223 | 0.167 | 0.205 | 0.235 | 0.643 | 0.645 | 0.633 | 0.389 | 0.369
NCI-H2170 |  |  |  |  |  | 0.479 | 0.47 | 0.453 | 0.489 | 0.457 | 0.373 | 0.284 | 0.403 | 0.406 | 0.419 | 0.645 | 0.641 | 0.488 | 0.286 | 0.253
NCI-H2228 | 0.788 | 0.755 | 0.389 | 0.314 | 0.229 |  |  |  |  |  | 0.278 | 0.272 | 0.278 | 0.285 | 0.319 | 0.102 | 0.134 | 0.116 | 0.148 | 0.165
NCI-H2342 |  |  |  |  |  | 0.664 | 0.724 | 0.722 | 0.671 | 0.685 | 0.563 | 0.825 | 0.635 | 0.466 | 0.58 | 0.765 | 0.737 | 0.804 | 0.537 | 0.434
SK-MES-1 |  |  |  |  |  | 0.377 | 0.365 | 0.341 | 0.341 | 0.17 | 0.663 | 0.748 | 0.618 | 0.626 | 0.639 | 0.566 | 0.575 | 0.331 | 0.288 | 0.232
SW 900 |  |  |  |  |  | 0.484 | 0.418 |  | 0.443 | 0.358 | 0.658 | 0.604 | 0.698 | 0.496 | 0.645 | 0.212 | 0.164 | 0.169 | 0.179 | 0.197
